Reference: patent publication US20250145585A1, “HETEROCYCLIC INHIBITORS OF IGF-1R FOR TREATMENT OF DISEASE” (HORIZON THERAPEUTICS IRELAND DAC, priority 2023, published 2025)

Key:
IGF-1R [1] = target: T1, IGF-1R (Homo sapiens, UniProt P08069); test: Example B-1: IGF-1R Assay (PC3 cells stimulated with IGF1, AlphaLISA on cell lysates); type: cell-based; conditions: compound two hours, IGF1 200 ng/mL for 30 min, read-out: IC50, Biological Activity against IGF-1R (Table B1)
T1 construct: expressed in transfected cells
T1 sequence (P08069 31-1367): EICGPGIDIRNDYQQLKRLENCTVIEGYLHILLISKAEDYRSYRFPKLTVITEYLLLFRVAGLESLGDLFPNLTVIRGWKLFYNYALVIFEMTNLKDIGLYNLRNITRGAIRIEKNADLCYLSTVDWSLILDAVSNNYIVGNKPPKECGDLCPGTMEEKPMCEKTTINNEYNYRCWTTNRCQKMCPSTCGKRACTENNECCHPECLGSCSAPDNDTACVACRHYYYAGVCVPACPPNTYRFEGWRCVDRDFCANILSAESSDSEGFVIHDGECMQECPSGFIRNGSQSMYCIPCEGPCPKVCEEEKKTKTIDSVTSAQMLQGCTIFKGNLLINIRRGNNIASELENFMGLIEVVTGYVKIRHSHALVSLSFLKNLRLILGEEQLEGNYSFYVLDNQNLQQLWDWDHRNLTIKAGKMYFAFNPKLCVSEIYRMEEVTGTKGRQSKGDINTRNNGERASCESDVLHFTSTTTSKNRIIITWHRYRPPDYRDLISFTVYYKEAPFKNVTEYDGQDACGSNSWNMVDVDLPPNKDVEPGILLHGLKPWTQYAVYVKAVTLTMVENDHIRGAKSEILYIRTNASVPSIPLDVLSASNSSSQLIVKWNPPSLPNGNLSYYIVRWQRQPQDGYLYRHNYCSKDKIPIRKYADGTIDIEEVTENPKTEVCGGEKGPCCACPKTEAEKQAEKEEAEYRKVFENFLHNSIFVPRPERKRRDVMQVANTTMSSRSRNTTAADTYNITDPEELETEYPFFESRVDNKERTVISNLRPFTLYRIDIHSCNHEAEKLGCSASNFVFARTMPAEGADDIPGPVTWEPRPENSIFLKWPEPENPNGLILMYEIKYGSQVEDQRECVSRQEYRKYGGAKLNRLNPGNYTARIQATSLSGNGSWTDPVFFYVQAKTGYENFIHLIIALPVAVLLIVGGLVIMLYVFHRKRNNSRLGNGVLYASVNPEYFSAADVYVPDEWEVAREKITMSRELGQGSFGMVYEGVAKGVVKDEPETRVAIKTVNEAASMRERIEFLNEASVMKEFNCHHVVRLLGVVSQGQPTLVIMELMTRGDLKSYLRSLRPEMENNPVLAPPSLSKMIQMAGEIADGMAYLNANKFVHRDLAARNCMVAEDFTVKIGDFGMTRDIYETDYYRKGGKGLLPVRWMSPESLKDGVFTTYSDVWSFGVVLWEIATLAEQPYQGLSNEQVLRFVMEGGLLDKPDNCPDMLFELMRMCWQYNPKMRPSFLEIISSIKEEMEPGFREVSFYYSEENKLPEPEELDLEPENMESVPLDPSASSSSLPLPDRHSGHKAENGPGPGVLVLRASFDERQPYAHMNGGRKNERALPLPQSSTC
In short: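 PC3 cells serum-starved 2 h, treated 2 h with 3-fold serially diluted compound, then stimulated 30 min with IGF1 (200 ng/mL final). Lysates analysed by AlphaLISA; % inhibition calculated relative to vehicle and EC80 controls, IC50 derived.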

IGF-1R [2] = target: T1, IGF-1R; test: Example B-2: IGF-1R Assay (PathHunter cell lines, EC80 agonist challenge, chemiluminescent detection); type: cell-based; conditions: PathHunter cells, compound 60 minutes at 37° C., EC80 agonist 3 hours; read-out: IC50, Biological Activity against IGF-1R (Table B2)
In short: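 PathHunter cells were pre-incubated with compound for 60 min at 37° C (1% vehicle), then challenged with EC80 agonist for 3 h at room temperature. Chemiluminescent detection after 1 h gave % inhibition relative to EC80 and vehicle controls, from which IC50 was derived.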

| SMILES | IC50 (IGF-1R [1]) [nM] | IC50 (IGF-1R [2]) [nM] |
| --- | --- | --- |
| CC1(C)C(=O)N(c2ccc(SC(F)(F)F)cc2)C(=O)N1Cc1ccnc(NC2CCOCC2)c1 [Compound 310, 5,5-dimethyl-1-((2-((tetrahydro-2H-pyran-4-yl)amino)pyridin-4-yl)methyl)-3-(4-((trifluoromethyl)thio)phenyl)imidazolidine-2,4-dione] | ≤ 500 | ≤ 500 |
| CC1(C)C(=O)N(c2ccc(C3(C(F)(F)F)CC3)cc2)C(=O)N1Cc1ccnc(N[C@H]2CCCOC2)c1 [Compound 121, (S)-5,5-dimethyl-1-((2-((tetrahydro-2H-pyran-3-yl)amino)pyridin-4-yl)methyl)-3-(4-(1-(trifluoromethyl)cyclopropyl)phenyl) imidazolidine-2,4-dione] | ≤ 500 | ≤ 500 |
| CC1(C)C(=O)N(c2ccc(C3(C(F)(F)F)CC3)cc2)C(=O)N1Cc1ccnc(N[C@@H]2CCOC2)c1 [Compound 118, (R)-5,5-dimethyl-1-((2-((tetrahydrofuran-3-yl)amino)pyridin-4-yl)methyl)-3-(4-(1-(trifluoromethyl)cyclopropyl)phenyl) imidazolidine-2,4-dione] | ≤ 500 | ≤ 500 |
| CC(C)(C#N)Nc1cc(CN2C(=O)N(c3ccc(C4(C(F)(F)F)CC4)cc3)C(=O)C2(C)C)ccn1 [Compound 109, 2-((4-((5,5-dimethyl-2,4-dioxo-3-(4-(1-(trifluoromethyl)cyclopropyl)phenyl)imidazolidin-1-yl)methyl)pyridin-2-yl)amino)-2-methylpropanenitrile] | ≤ 500 | ≤ 500 |
| CC1(C)C(=O)N(c2ccc(SC(F)(F)F)cc2)C(=O)N1Cc1ccnc2[nH]ccc12 [Compound 1, 1-((1H-pyrrolo[2,3-b]pyridin-4-yl)methyl)-5,5-dimethyl-3-(4-((trifluoromethyl)thio)phenyl)imidazolidine-2,4-dione] | ≤ 500 | ≤ 500 |
| CC1(Nc2cc(CN3C(=O)N(c4ccc(C5(C(F)(F)F)CC5)cc4)C(=O)C3(C)C)ccn2)CC1 [Compound 138, 5,5-dimethyl-1-((2-((1-methylcyclopropyl)amino)pyridin-4-yl)methyl)-3-(4-(1-(trifluoromethyl)cyclopropyl)phenyl) imidazolidine-2,4-dione] | ≤ 500 | ≤ 500 |
| CC(c1ccnc(N)c1)N1C(=O)N(c2ccc(C3(C(F)(F)F)CC3)cc2)C(=O)C1(C)C (stereo not shown) [Compound 135, 1-(1-(2-aminopyridin-4-yl)ethyl)-5,5-dimethyl-3-(4-(1-(trifluoromethyl)cyclopropyl)phenyl) imidazolidine-2,4-dione] | ≤ 500 | ≤ 500 |
| C[C@@H](CC#N)Nc1cc(CN2C(=O)N(c3ccc(C(C)(C)C)cc3)C(=O)C2(C)C)ccn1 [Compound 278, (S)-3-((4-((3-(4-(tert-butyl)phenyl)-5,5-dimethyl-2,4-dioxoimidazolidin-1-yl)methyl)pyridin-2-yl)amino)butanenitrile] | ≤ 500 | 500 to 2000 |

Next, values leading:

| IC50 (IGF-1R [1]) [nM] | IC50 (IGF-1R [2]) [nM] | SMILES |
| --- | --- | --- |
| 2000 to 10000 | 2000 to 10000 | CC(C)Nc1cc(CN2C(=O)N(c3ccc4c(c3)NC(=O)C43CC3)C(=O)C2(C)C)ccn1 [Compound 187, 1-((2-(isopropylamino)pyridin-4-yl)methyl)-5,5-dimethyl-3-(2′-oxospiro[cyclopropane-1,3′-indolin]-6′-yl)imidazolidine-2,4-dione] |
| ≤ 500 | ≤ 500 | CC1(C)C(=O)N(c2ccc(C3(C(F)(F)F)CC3)cc2)C(=O)N1Cc1ccnc(NC2CC2)c1 [Compound 93, 1-((2-(cyclopropylamino)pyridin-4-yl)methyl)-5,5-dimethyl-3-(4-(1-(trifluoromethyl)cyclopropyl)phenyl)imidazolidine-2,4-dione] |
| ≤ 500 | ≤ 500 | CC1(C)C(=O)N(c2ccc(C3(C(F)(F)F)CC3)cc2)C(=O)N1Cc1ccnc(N[C@H]2CCOC2)c1 [Compound 119, (S)-5,5-dimethyl-1-((2-((tetrahydrofuran-3-yl)amino)pyridin-4-yl)methyl)-3-(4-(1-(trifluoromethyl)cyclopropyl)phenyl) imidazolidine-2,4-dione] |
| 500 to 2000 | 500 to 2000 | CC1(C)C(=O)N(c2ccc(SC(F)(F)F)cc2)C(=O)N1Cc1ccnc(N)c1P(C)(C)=O [Compound 389, 1-((2-amino-3-(dimethylphosphoryl)pyridin-4-yl)methyl)-5,5-dimethyl-3-(4-((trifluoromethyl)thio)phenyl) imidazolidine-2,4-dione] |
| 500 to 2000 | 500 to 2000 | CC1(C)C(=O)N(c2ccc(C3(C(F)(F)F)CC3)cc2)C(=O)N1Cc1ccnc(NC2CCS(=O)(=O)C2)c1 (stereo not shown) [Compound 136, 1-((2-((1,1-dioxidotetrahydrothiophen-3-yl)amino)pyridin-4-yl)methyl)-5,5-dimethyl-3-(4-(1-(trifluoromethyl)cyclopropyl)phenyl) imidazolidine-2,4-dione] |
| 2000 to 10000 | 2000 to 10000 | CC(C)Nc1cc(CN2C(=O)N(c3ccc4c(c3)S(=O)(=O)CC4(C)C)C(=O)C2(C)C)ccn1 [Compound 190, 3-(3,3-dimethyl-1,1-dioxido-2,3-dihydrobenzo[b]thiophen-6-yl)-1-((2-(isopropylamino)pyridin-4-yl)methyl)-5,5-dimethylimidazolidine-2,4-dione] |
| ≤ 500 | ≤ 500 | CC1(C)C(=O)N(c2ccc(C3(C(F)(F)F)CC3)cc2)C(=O)N1Cc1ccnc2c1CC(=O)N2 [Compound 13, 5,5-dimethyl-1-((2-oxo-2,3-dihydro-1H-pyrrolo[2,3-b]pyridin-4-yl)methyl)-3-(4-(1-(trifluoromethyl)cyclopropyl)phenyl)imidazolidine-2,4-dione] |
| ≤ 500 | ≤ 500 | CC1(C)CNc2nccc(CN3C(=O)N(c4ccc(SC(F)(F)F)cc4)C(=O)C3(C)C)c21 [Compound 20, 1-((3,3-dimethyl-2,3-dihydro-1H-pyrrolo[2,3-b]pyridin-4-yl)methyl)-5,5-dimethyl-3-(4-((trifluoromethyl)thio)phenyl)imidazolidine-2,4-dione] |
| ≤ 500 | ≤ 500 | CC(C)Nc1cc(CN2C(=O)N(c3ccc(C(C)(C)C#N)cc3)C(=O)C2(C)C)ccn1 [Compound 125, 2-(4-(3-((2-(isopropylamino)pyridin-4-yl)methyl)-4,4-dimethyl-2,5-dioxoimidazolidin-1-yl)phenyl)-2-methylpropanenitrile] |
